Measured values from ChEMBL document CHEMBL2424656, “Analogues of the Inhoffen-Lythgoe diol with anti-proliferative activity” (Bioorg Med Chem Lett, 2013).
The source made the active and inactive calls. The calls are words filed in the database; no cut-off is given here.

What was measured:
[1] = Growth inhibition of human U87MG cells after 72 hrs by MTS-PMS assay; assay type: functional, U-87MG ATCC; settings: U-87 MG
HT-29 [2] = experiment: Growth inhibition of human HT-29 cells after 72 hrs by MTS-PMS assay; assay type: functional; settings: HT-29, 72 h
HT-29 [3] = experiment: Ratio of GI50 for human U87MG cells to GI50 for human HT-29 cells; assay type: functional
[4] = target: T1, Vitamin D3 receptor (Mus musculus) (UniProt P48281); experiment: Activation of VDR in mouse C3H10T1/2 cells assessed as upregulation of CYP24A1 mRNA expression at 1 to 10 uM after 24 hrs by RT-PCR analysis; assay type: cell-based; settings: C3H 10T1/2
T1 sequence (whole entry): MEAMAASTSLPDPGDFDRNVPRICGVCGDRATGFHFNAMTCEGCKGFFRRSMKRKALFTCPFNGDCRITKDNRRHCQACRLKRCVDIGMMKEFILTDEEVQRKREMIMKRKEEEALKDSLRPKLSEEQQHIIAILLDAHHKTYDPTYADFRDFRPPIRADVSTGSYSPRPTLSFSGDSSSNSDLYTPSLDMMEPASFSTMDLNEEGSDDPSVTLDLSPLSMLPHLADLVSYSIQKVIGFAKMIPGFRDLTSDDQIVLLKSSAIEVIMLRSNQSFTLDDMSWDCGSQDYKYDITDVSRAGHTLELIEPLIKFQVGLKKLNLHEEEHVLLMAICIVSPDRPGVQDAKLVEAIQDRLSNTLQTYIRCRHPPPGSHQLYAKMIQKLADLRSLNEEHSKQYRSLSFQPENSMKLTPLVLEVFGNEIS

[5] = […] of hedgehog signaling in mouse C3H10T1/2 cells assessed as effect on GLI1 mRNA expression at 1 to 10 uM after 24 hrs by RT-PCR analysis in presence of oxysterol; assay type: cell-based; settings: C3H 10T1/2
[6] = target: T1, Vitamin D3 receptor (Mus musculus); experiment: Activation of VDR in mouse C3H10T1/2 cells assessed as upregulation of CYP24A1 mRNA expression at 5 uM after 24 hrs by RT-PCR analysis relative to DMSO-treated control; assay type: cell-based; settings: C3H 10T1/2
[7] = […] of hedgehog signaling in mouse C3H10T1/2 cells assessed as downregulation of GLI1 mRNA expression at 5 uM after 24 hrs by RT-PCR analysis in presence of oxysterol; assay type: cell-based; settings: C3H 10T1/2
[8] = Cytotoxicity against mouse C3H10T1/2 cells at 10 uM after 24 hrs; assay type: cell-based; settings: c3h 10t1/2, 24 h

C[C@H](COC(=O)c1ccc(Cl)cc1)[C@H]1CC[C@H]2[C@@H](O)CCC[C@]12C
GI50 [1]: 31.4 µM
GI50 (HT-29 [2]): 15.9 µM
RatioGI50 (HT-29 [3]): 2

C[C@H](COC(=O)c1ccccc1)[C@H]1CC[C@H]2[C@@H](O)CCC[C@]12C
GI50 [1]: 24.6 µM
GI50 (HT-29 [2]): 22.6 µM
Activity [4]: inactive

COc1ccccc1C(=O)OC[C@@H](C)[C@H]1CC[C@H]2[C@@H](O)CCC[C@]12C
GI50 [1]: 56 µM
GI50 (HT-29 [2]): 35.7 µM

C[C@H](COC(=O)C1CCCCC1)[C@H]1CC[C@H]2[C@@H](O)CCC[C@]12C
GI50 [1]: 11.2 µM
GI50 (HT-29 [2]): 15.2 µM
Activity [5]: inactive
Activity [4]: inactive

C[C@H](COC(=O)c1cccc(Cl)c1)[C@H]1CC[C@H]2[C@@H](O)CCC[C@]12C
GI50 [1]: 69 µM
GI50 (HT-29 [2]): 26.2 µM

C[C@H](CN)[C@H]1CC[C@H]2[C@@H](O)CCC[C@]12C
GI50 [1]: > 100 µM
GI50 (HT-29 [2]): > 100 µM

C[C@H](COC(=O)c1ccccc1Cl)[C@H]1CC[C@H]2[C@@H](O)CCC[C@]12C
GI50 [1]: 46.8 µM
GI50 (HT-29 [2]): 14.4 µM

C[C@H](COC(=O)c1ccncc1)[C@H]1CC[C@H]2[C@@H](O)CCC[C@]12C
GI50 [1]: > 100 µM
GI50 (HT-29 [2]): > 100 µM

C[C@H](COC(=O)C1CC1)[C@H]1CC[C@H]2[C@@H](O)CCC[C@]12C
GI50 [1]: > 100 µM
GI50 (HT-29 [2]): 82.6 µM

C[C@H](COC(=O)c1cccnc1)[C@H]1CC[C@H]2[C@@H](O)CCC[C@]12C
GI50 [1]: > 100 µM
GI50 (HT-29 [2]): 95.2 µM

C=C1CC[C@H](O)C/C1=C/C=C1\CCC[C@]2(C)[C@@H]([C@H](C)CCCC(C)C)CC[C@@H]12 [CHOLECALCIFEROL]
fold change (FC) [6]: 8000
GI50 (HT-29 [2]): 53.8 µM
Activity [7]: Active

CC(C)CC(=O)OC[C@@H](C)[C@H]1CC[C@H]2[C@@H](O)CCC[C@]12C
GI50 [1]: 56 µM
GI50 (HT-29 [2]): 47.5 µM

COc1cccc(C(=O)OC[C@@H](C)[C@H]2CC[C@H]3[C@@H](O)CCC[C@]23C)c1
GI50 [1]: 15.9 µM
GI50 (HT-29 [2]): 23.7 µM

C[C@H](COC(=O)C1CCC1)[C@H]1CC[C@H]2[C@@H](O)CCC[C@]12C
GI50 [1]: 27.1 µM
GI50 (HT-29 [2]): 27 µM

C[C@H](COC(=O)c1ccccc1O)[C@H]1CC[C@H]2[C@@H](O)CCC[C@]12C
GI50 [1]: 18.8 µM
GI50 (HT-29 [2]): 14.1 µM
Activity [5]: inactive
Activity [8]: Toxic
Activity [4]: inactive

C[C@H](COC(=O)c1cccc(O)c1)[C@H]1CC[C@H]2[C@@H](O)CCC[C@]12C
GI50 [1]: 76.9 µM
GI50 (HT-29 [2]): 70.3 µM

C[C@H](CNC(=O)c1ccc(Cl)cc1)[C@H]1CC[C@H]2[C@@H](O)CCC[C@]12C
GI50 [1]: 42.9 µM
GI50 (HT-29 [2]): 32.3 µM

C[C@H](CNC(=O)c1ccccc1O)[C@H]1CC[C@H]2[C@@H](O)CCC[C@]12C
GI50 [1]: > 100 µM
GI50 (HT-29 [2]): 68.2 µM

C[C@H](COC(=O)c1cccc2ccccc12)[C@H]1CC[C@H]2[C@@H](O)CCC[C@]12C
GI50 [1]: 39.2 µM
GI50 (HT-29 [2]): 35.3 µM

C[C@H](COC(=O)c1ccccn1)[C@H]1CC[C@H]2[C@@H](O)CCC[C@]12C
GI50 [1]: > 100 µM
GI50 (HT-29 [2]): > 100 µM

C[C@H](COC(=O)c1ccc(O)cc1)[C@H]1CC[C@H]2[C@@H](O)CCC[C@]12C
GI50 [1]: 67 µM
GI50 (HT-29 [2]): 41 µM

C[C@H](COC(=O)c1ccco1)[C@H]1CC[C@H]2[C@@H](O)CCC[C@]12C
GI50 [1]: 79.1 µM
GI50 (HT-29 [2]): > 100 µM

COc1ccc(C(=O)OC[C@@H](C)[C@H]2CC[C@H]3[C@@H](O)CCC[C@]23C)cc1
GI50 [1]: 33.1 µM
GI50 (HT-29 [2]): 39.8 µM

C[C@H](COC(=O)C(C)(C)C)[C@H]1CC[C@H]2[C@@H](O)CCC[C@]12C
GI50 [1]: 17.1 µM
GI50 (HT-29 [2]): 11.9 µM
Activity [5]: inactive
Activity [4]: inactive

C[C@H](CNC(=O)C1CCCCC1)[C@H]1CC[C@H]2[C@@H](O)CCC[C@]12C
GI50 [1]: > 100 µM
GI50 (HT-29 [2]): 84.1 µM

C[C@H](COC(=O)c1ccccc1)[C@H]1CC[C@H]2[C@@H](OC(=O)c3ccccc3)CCC[C@]12C
GI50 [1]: > 100 µM
GI50 (HT-29 [2]): > 100 µM

C[C@H](COC(=O)c1ccc2ccccc2c1)[C@H]1CC[C@H]2[C@@H](O)CCC[C@]12C
GI50 [1]: 51.3 µM
GI50 (HT-29 [2]): 19.8 µM

C[C@H](COC(=O)C1CCCC1)[C@H]1CC[C@H]2[C@@H](O)CCC[C@]12C
GI50 [1]: 21.7 µM
GI50 (HT-29 [2]): 22.1 µM
